Assays:
c-Myc = c-Myc protein expression and transcriptional activity in LNCaP (FIG. 12); type: cell-based, human; conditions: 300 μM, 72 h
Protocol: The cells and tumor tissues were homogenized using the PRO-PREP™ extraction solution (iNtRON Biotechnology, Seongnam, Korea). After incubation, the homogenate was centrifuged at 16,000×g for 20 min at 4° C., and the supernatant was collected for western blot analysis. Subsequently, an equivalent quantity of protein was separated using sodium dodecyl sulfate polyacrylamide gels and transferred onto a polyvinylidene difluoride (PVDF) membrane. The PVDF membranes were incubated with the primary antibodies overnight at 4° C., washed with tris-buffered saline, and then incubated with HRP-conjugated anti-mouse or anti-rabbit antibodies. The bands were visualized using a ChemiDoc imaging system (Bio-Rad, Hercules, CA, USA). The band intensities were determined using an Image J software.
The c-Myc Transcription Factor Assay Kit (Cat. ab207200, abcam) was used to quantify the activation of c-Myc in nuclear extracts after peptide treatment. […] The protein concentration was quantified using the Bradford method (798 μL Bradford, 200 μL water, and 2 μL of the protein) at a wavelength of 595 nm (SmartSpecPlus; BioRad). For the detection of c-Myc transcriptional activity, 5 μg of the isolated nuclear extracts were used, and the absorbance was measured on a spectrophotometer (Synergy HT; BioTek) at OD 450 nm. […]

serum testosterone = assay: Serum testosterone level and seminal vesicle weight after repeated injection (FIG. 15); type: in vivo, mouse; conditions: male BALB/c mice
Protocol: 6-week-old male BALB/c mice (Jung Ang Lab Animal Inc., Seoul, South Korea) were subcutaneously injected with vehicle or 1 mg/kg/day HS1002 for 10 days. Blood samples were collected 5 h after initial injection and 5 h after last injection. The serum concentration of testosterone was determined using a testosterone ELISA kit (ALPCO Diagnostics, Salem, NH, USA).
GnRH agonists stimulate the release of LH and FSH by binding to GnRHR located on the pituitary gonadotropes and consequently stimulate the secretion of steroid hormone from the gonads. However, continuous exposure to the GnRH agonist results in the downregulation of desensitization of GnRHR and eventually decreases production of testosterone. The inhibitory effect on the pituitary gonadal axis has a role in the anti-prostate cancer effects of GnRH analogs. Based on the HS1002 peptide design strategy, to validate whether HS1002 functions as a GnRHR ligand, the serum testosterone level in male mice was tested after repeated subcutaneous injections of HS1002.

[1] = system: tumor-infiltrating CD45+ and CD8+ cells in MC38 tumor; assay: Flow cytometry of tumor infiltrating leukocytes in MC38 tumors (FIG. 20); type: in vivo, mouse; conditions: MC38 tumor tissue, vs vehicle
Description: A mouse tumor dissociation kit (Cat. 130-096-730, Miltenyi Biotec, Bergisch Gladbach, Germany) was used for tumor digestion according to the manufacturer's protocol. Briefly, the tumor was cut into small fragments with RPMI 1640 containing enzymes D, R, and A. After filtration through a 70 μm cell strainer, red blood cells were removed using RBC lysis buffer (Cat. 420301, BioLegend, San Diego, CA, USA). The acquired single-cell suspension was used for further analysis. For analysis of intracellular cytokines, the cell suspension was incubated in the presence of a cell stimulation cocktail (with a protein transport inhibitor) (Cat. 00-4975-93, Invitrogen, eBioscience) for 5 h and subjected to fixation and permeabilization using an intracellular fixation and permeabilization buffer set (Cat. 88-8824-00, Thermo Fisher) according to the manufacturer's protocol. Following the staining process, samples were analyzed with Novocyte (ACEA Biosciences, San Diego, CA, USA).
CTLs are the key mediators of granzyme- and perforin-mediated cancer cell destruction during cancer immunosurveillance and immunotherapy. […] To investigate the effect of HS1002 on tumor-infiltrating CD8^+ T cells in MC38 tumor tissue, flow cytometric analysis was used. Flow cytometric analysis confirmed that HS1002 elevated the total number of tumor-infiltrating CD45+ cells and the production of granzyme B and IFN-γ in CD8^+ cells and in MC38 tumor tissue (FIG. 20A). To assess the effect of HS1002 on immune response-related gene expression in a syngeneic mouse model, gene expression analysis was conducted by profiling the transcriptomes of the tumor. A total of 49,196 genes were analyzed in tumor tissues, and genes with a fold change exceeding 1.5 were included for further analysis with statistical significance at p<0.05.

SMILES: CCNC(=O)[C@@H]1CCCN1C(=O)[C@@H](NC(=O)[C@H](Cc1ccccc1)NC(=O)[C@H](CCCNC(=N)N)NC(=O)[C@H](CC(C)C)NC(=O)[C@H](CCCNC(=N)N)NC(=O)[C@H](Cc1ccc(O)cc1)NC(=O)[C@H](CO)NC(=O)[C@H](Cc1c[nH]c2ccccc12)NC(=O)[C@H](Cc1c[nH]cn1)NC(=O)[C@@H]1CCC(=O)N1)[C@@H](C)CC [HS1002]
- c-Myc protein expression (c-Myc): significantly decreased
- c-Myc transcriptional activity (c-Myc): significantly decreased
- serum testosterone level increase compared to the vehicle-injected group (serum testosterone; 1 mg/kg s.c., 5 h after the 1st injection): 2.37 fold
- seminal vesicle weights (serum testosterone; 1 mg/kg/day s.c., 10 days, vs vehicle): significantly reduced
- serum testosterone level (serum testosterone; 1 mg/kg/day s.c., at 10 days after repeated injection, vs vehicle): significantly lower
- production of IFN-γ in CD8+ cells [1]: elevated
- production of granzyme B in CD8+ cells [1]: elevated
- total number of tumor-infiltrating CD45+ cells [1]: elevated

From patent publication US20240247031A1, “COMPOSITION FOR TREATING CANCER CONTAINING TELOMERASE-TARGETING GNRH ANTAGONIST-DERIVED PEPTIDE HS1002” (Research & Business Foundation Sungkyunkwan University, priority 2023, published 2024)
